Experimental data reported in US7615534B2, “Antimicrobial peptides and use thereof” (Toagosei Co., Ltd, priority 2005, dated 2009).
Where no end group is shown, it is not given here.

System: Staphylococcus aureus IFO 12732
Type: cell-based
Conditions: 37° C., turbidity 24 hours later, diluents approximately 50 μM to approximately 0.39 μM, approximately 1×10^6 cells/mL
Description: Regarding the antimicrobial peptide in each of samples 1 to 14, the antimicrobial activities (minimum inhibitory concentration: MIC) with respect to gram-positive bacteria (Staphylococcus aureus IFO 12732) were determined, as described below, by a liquid medium dilution technique using a 96-well microplate. Staphylococcus aureus bacteria are inoculated from a preservation medium to an agar plate medium (“Muller Hinton Agar” manufactured by DIFCO), and thereafter stationary cultured for 18 hours at 37° C. Cultured bacteria were scratched twice using a disposable loop, and gathered bacteria were suspended in 5 mL of physiological saline. The OD660 value of the bacterial suspension derived from diluting the suspension 10 times with physiological saline was determined. The bacterial suspension used in the following tests was prepared by utilizing physiological saline, such that its OD660 value was 0.1 (therefore, bacteria concentration: approximately 2×10^7 cells/mL).
Each peptide sample derived by the above-described method was dissolved with sterile distilled water, which served as a carrier in the present example, to prepare a drug of predetermined concentration. More specifically, an appropriate amount of peptide sample were added into an Eppendorf (registered trademark) tube with an appropriate capacity, and such peptide sample were dissolved with sterile distilled water to prepare 2 mM of drug (peptide solution). The derived drug was appropriately diluted, and each diluent of approximately 50 μM to approximately 0.39 μM was prepared. Thereafter, each diluent was respectively introduced into the well of a polystyrene 96-round-bottom-well microplate prepared in advance. Next, 5 μL of the bacterial suspension having 0.1 OD660 was added (test bacteria quantity: approximately 1×10^6 cells/mL) respectively to each well containing the diluent of each concentration. The microplate was then incubated in an incubator at 37° C., and the presence of bacteria was evaluated based on the turbidity 24 hours later. The minimum drug concentration (peptide concentration), in which an increased in turbidity caused by bacteria was not detected at the time of measurement, was defined as MIC (unit: μM) in the present example.

| Compound | Antimicrobial Activities (MIC) S. aureus (24 hours later) |
| --- | --- |
| CC[C@H](C)[C@H](NC(=O)[C@H](CC(C)C)NC(=O)[C@H](CCCNC(=N)N)NC(=O)[C@@H](N)C(C)C)C(=O)N[C@@H](CCCCN)C(=O)N[C@@H](CC(C)C)C(=O)N[C@@H](CC(C)C)C(=O)N[C@@H](Cc1ccc(O)cc1)C(=O)N[C@@H](CCC(N)=O)C(N)=O [Sample 1, VRLLKLLYQ] | 50 µM |
| CC[C@H](C)[C@H](NC(=O)[C@H](CC(C)C)NC(=O)[C@H](CCCNC(=N)N)NC(=O)[C@@H](NC(=O)[C@@H](NC(=O)[C@H](CCCNC(=N)N)NC(=O)[C@@H](NC(=O)[C@H](CC(C)C)NC(=O)[C@H](CCC(=O)O)NC(=O)[C@@H](N)CCC(=O)O)[C@@H](C)CC)[C@@H](C)O)C(C)C)C(=O)N[C@@H](CCCCN)C(=O)N[C@@H](CC(C)C)C(=O)N[C@@H](CC(C)C)C(=O)N[C@@H](Cc1ccc(O)cc1)C(=O)N[C@@H](CCC(N)=O)C(N)=O [Sample 10, EELIRTVRLIKLLYQ] | 25 µM |
| EDLLKAVRLIKFLYQ-NH2 [Sample 9, EDLLKAVRLIKFLYQ] | 25 µM |
| EDLLRTVRLIKVLYQ-NH2 [Sample 13, EDLLRTVRLIKVLYQ] | 50 µM |
| EELLKAVRLIKLLYQ-NH2 [Sample 8, EELLKAVRLIKLLYQ] | 25 µM |
| ENLLKAIRLIKFLYQ-NH2 [Sample 14, ENLLKAIRLIKFLYQ] | 6.25 µM |
| IRLIKFLYQ-NH2 [Sample 5, IRLIKFLYQ] | 25 µM |
| KTKEGVKT (KTKEGVKT-NH2) [Comparative Sample 1, reference compound] | No Activity |
| RELLTAVRIIKILYQ-NH2 [Sample 12, RELLTAVRIIKILYQ] | 25 µM |
| RLIKLLYQ-NH2 [Sample 6, RLIKLLYQ] | 25 µM |
| RLIKLLYQRLIKLLYQ-NH2 [Sample 7, RLIKLLYQ RLIKLLYQ] | 6.25 µM |
| RRAAQAVRLIKLLYQ-NH2 [Sample 11, RRAAQAVRLIKLLYQ] | 6.25 µM |
| VRFIKFLYQ-NH2 [Sample 3, VRFIKFLYQ] | 25 µM |
| VRLIKFLYQ-NH2 [Sample 2, VRLIKFLYQ] | 12.5 µM |

Same assay, conditions: summary of Table 2

| Compound | antimicrobial activity (in words) |
| --- | --- |
| KTKEGVKT (KTKEGVKT-NH2) [Comparative Sample 1, reference compound] | no antimicrobial activity was detected |
